Measured values from article PMC4148180 (Neurobiology of Disease, 2014).

Assays:
P2Y12 receptor (P2Y12R) [1] = biological target: T1, P2Y12 receptor (P2Y12R) (Homo sapiens, UniProt Q9H244); test: cAMP accumulation assay, rightward shift of 2-methylthio-ADP curve; type: cell-based
P2Y12 receptor (P2Y12R) [2] = biological target: T1, P2Y12 receptor (P2Y12R); test: inhibition of forskolin-induced cAMP formation; type: cell-based

T1 sequence (Q9H244 whole entry): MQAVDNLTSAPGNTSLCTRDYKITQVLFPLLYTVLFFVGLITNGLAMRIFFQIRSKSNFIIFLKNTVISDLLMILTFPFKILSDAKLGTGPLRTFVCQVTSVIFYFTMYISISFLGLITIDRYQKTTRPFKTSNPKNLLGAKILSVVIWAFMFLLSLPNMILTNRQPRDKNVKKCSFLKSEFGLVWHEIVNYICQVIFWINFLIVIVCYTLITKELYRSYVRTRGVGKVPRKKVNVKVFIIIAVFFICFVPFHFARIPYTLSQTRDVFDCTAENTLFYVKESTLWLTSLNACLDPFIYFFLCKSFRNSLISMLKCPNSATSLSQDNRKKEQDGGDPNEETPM

Row | Kb (P2Y12 receptor (P2Y12R) [1]) [nM] | EC50 (P2Y12 receptor (P2Y12R) [2]) [nM] | SMILES
1 | 0.0794 |  | Nc1c(S(=O)(=O)O)cc(Nc2ccc(Nc3ccccc3)c(S(=O)(=O)O)c2)c2c1C(=O)c1ccccc1C2=O [PSB-0739]
2 |  | 0.26 | CSc1nc(N)c2ncn([C@@H]3O[C@H](COP(=O)(O)OP(=O)(O)O)[C@@H](O)[C@H]3O)c2n1 [2-methylthio-ADP]
